These compounds were tested against T1, full-length MALT1 protein His-MALT1(1-824) (Homo sapiens, UniProt Q9UDY8) (assay: MALT1 protease assay, Assay 1 (2 nM MALT1, Ac-LRSR-AMC substrate)). Details: 2 nM MALT1, 50 μM Ac-LRSR-AMC, 2 h pre-incubation, 8 hr incubation at RT.
T1 construct: full-length MALT1 protein His-MALT1(1-824); His (N); made in house; host or cells: baculovirus-infected insect cells
T1 sequence (Q9UDY8 1-824): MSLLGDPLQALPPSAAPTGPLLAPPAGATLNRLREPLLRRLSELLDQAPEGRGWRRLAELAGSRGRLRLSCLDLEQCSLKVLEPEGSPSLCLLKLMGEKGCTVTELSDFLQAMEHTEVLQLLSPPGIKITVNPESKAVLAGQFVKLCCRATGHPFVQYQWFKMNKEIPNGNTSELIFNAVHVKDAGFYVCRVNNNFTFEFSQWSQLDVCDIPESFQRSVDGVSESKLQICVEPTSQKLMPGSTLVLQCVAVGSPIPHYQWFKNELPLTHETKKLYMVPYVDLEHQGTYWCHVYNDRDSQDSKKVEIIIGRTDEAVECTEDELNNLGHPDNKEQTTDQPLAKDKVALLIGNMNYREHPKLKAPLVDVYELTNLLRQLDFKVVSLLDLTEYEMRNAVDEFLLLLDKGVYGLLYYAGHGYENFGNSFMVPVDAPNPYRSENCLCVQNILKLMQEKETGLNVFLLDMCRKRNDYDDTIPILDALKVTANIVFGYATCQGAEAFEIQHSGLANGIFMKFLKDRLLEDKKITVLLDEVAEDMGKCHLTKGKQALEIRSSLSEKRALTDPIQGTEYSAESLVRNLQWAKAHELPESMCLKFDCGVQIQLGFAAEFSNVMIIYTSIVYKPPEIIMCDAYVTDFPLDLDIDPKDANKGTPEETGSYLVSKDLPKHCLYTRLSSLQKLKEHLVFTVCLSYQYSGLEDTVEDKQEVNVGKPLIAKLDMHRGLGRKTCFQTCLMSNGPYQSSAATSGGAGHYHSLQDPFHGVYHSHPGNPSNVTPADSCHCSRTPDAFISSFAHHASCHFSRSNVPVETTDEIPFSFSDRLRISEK
Format: biochemical
Procedure: MALT1 protease activity was assessed in an in vitro assay using a tetrapeptide as substrate and full-length MALT1 protein His-MALT1(1-824) purified from baculovirus-infected insect cells. The tetrapeptide substrate is Ac-LRSR-AMC (SM Biochemicals) with Km measured at around 100 μM.
The final assay buffer includes 1 nM (Assay 2) or 2 nM (Assay 1) of MALT1 full-length protein, 50 μM Ac-LRSR-AMC substrate, 50 mM Tris pH 7.5, 600 mM Sodium Citrate, 1 mM DTT, 1 mM EDTA, and 0.05% BSA in 384-well plate format using black microtiter square well plates (Optiplate 384-F, Perkin Elmer).
Test compounds were dissolved in 100% DMSO at stock of 10 mM, with final DMSO concentration 0.1%. Test compounds were pre-incubated with MALT1 protein for 2 h at room temperature. Substrate was added after the pre-incubation and fluorescence signal was measured using Envision at excitation 355 nm and emission 460 nm after 8 hr incubation at RT. Increase in the assay signal was linear over this period and proportional with increase in the enzyme content.
The fluorescence units were transformed to percentage of remaining activity by using the high control (HC, median of fluorescence signal from wells containing MALT1 protein, substrate, and DMSO) and low control (LC, median of fluorescence signal from wells with substrate only) with the formula below: […]
IC50 and Hill coefficients were obtained using Graph Pad Prism (Graph Pad software, Inc, USA) with non-linear regression analysis.

IC50	Compound
100 to 1000 nM	CC1(C)c2c(cnc3cc(Cl)nn23)C(C(=O)Nc2cnc(-n3nccn3)c(Cl)c2)C1O (racemic) [Example 19, 2-chloro-N-(5-chloro-6-(2H-1,2,3-triazol-2-yl)pyridin-3-yl)-7-hydroxy-8,8-dimethyl-7,8-dihydro-6H-cyclopenta[e]pyrazolo[1,5-a]pyrimidine-6-carboxamide]
100 to 1000 nM	CC1(C)CC(C(=O)Nc2cnc(-n3nccn3)c(Cl)c2)c2cnc3cc(Cl)nn3c21 (single isomer, unassigned) [Example 1, 2-chloro-N-(5-chloro-6-(2H-1,2,3-triazol-2-yl)pyridin-3-yl)-8,8-dimethyl-7,8-dihydro-6H-cyclopenta[e]pyrazolo[1,5-a]pyrimidine-6-carboxamide]
≥ 1000 nM	CC1(C)C[C@@H](C(=O)Nc2cnc(-n3nccn3)c(Cl)c2)c2cnc3cc(C#N)nn3c21 (single isomer, unassigned) [Example 3, N-(5-chloro-6-(2H-1,2,3-triazol-2-yl)pyridin-3-yl)-2-cyano-8,8-dimethyl-7,8-dihydro-6H-cyclopenta[e]pyrazolo[1,5-a]pyrimidine-6-carboxamide]
≥ 1000 nM	Cc1cc2ncc3c(n2n1)C(C)(C)C[C@H]3C(=O)Nc1cnc(-n2nccn2)c(Cl)c1 (single isomer, unassigned) [Example 5, N-(5-chloro-6-(2H-1,2,3-triazol-2-yl)pyridin-3-yl)-2,8,8-trimethyl-7,8-dihydro-6H-cyclopenta[e]pyrazolo[1,5-a]pyrimidine-6-carboxamide]
≥ 1000 nM	CC1(C)CC[C@@H](C(=O)Nc2cnc(-n3nccn3)c(Cl)c2)c2cnc3cc(Cl)nn3c21 (single isomer, unassigned) [Example 8, 2-chloro-N-(5-chloro-6-(2H-1,2,3-triazol-2-yl)pyridin-3-yl)-9,9-dimethyl-6,7,8,9-tetrahydropyrazolo[1,5-a]quinazoline-6-carboxamide]
≥ 1000 nM	Cn1ccc(-c2ncc(NC(=O)[C@@H]3CC(C)(C)c4c3cnc3cc(Cl)nn43)cc2Cl)n1 (single isomer, unassigned) [Example 10, 2-chloro-N-(5-chloro-6-(1-methyl-1H-pyrazol-3-yl)pyridin-3-yl)-8,8-dimethyl-7,8-dihydro-6H-cyclopenta[e]pyrazolo[1,5-a]pyrimidine-6-carboxamide]
≥ 1000 nM	CC1(C)C[C@@H](C(=O)Nc2cnc(-n3cccn3)c(Cl)c2)c2cnc3cc(Cl)nn3c21 (single isomer, unassigned) [Example 12, 2-chloro-N-(5-chloro-6-(1H-pyrazol-1-yl)pyridin-3-yl)-8,8-dimethyl-7,8-dihydro-6H-cyclopenta[e]pyrazolo[1,5-a]pyrimidine-6-carboxamide]

The compounds below were run against T1, full-length MALT1 protein His-MALT1(1-824) (assay: MALT1 protease assay, Assay 2 (1 nM MALT1, Ac-LRSR-AMC substrate)). Details: 1 nM MALT1, 50 μM Ac-LRSR-AMC, 2 h pre-incubation, 8 hr incubation at RT.
Format: biochemical
How it was run: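 Full-length His-MALT1(1-824) from baculovirus-infected insect cells, pre-incubated with compound 2 h at RT (0.1% DMSO). Then 50 μM Ac-LRSR-AMC added. Buffer was Tris pH 7.5 with 600 mM sodium citrate, DTT, EDTA and BSA. Fluorescence (ex 355/em 460 nm) was read after 8 h at RT and normalized to high/low controls. IC50 from non-linear regression.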

IC50	Compound
≥ 1000 nM	CC1(C)CC(C(=O)Nc2cnc(-n3ncc(C#N)n3)c(Cl)c2)c2cnc3cc(Cl)nn3c21 (centres unmarked) [Example 137, 2-chloro-N-(5-chloro-6-(4-cyano-2H-1,2,3-triazol-2-yl)pyridin-3-yl)-8,8-dimethyl-7,8-dihydro-6H-cyclopenta[e]pyrazolo[1,5-a]pyrimidine-6-carboxamide]
10 to 100 nM	CC1(C)CC(C(=O)Nc2cnc(-c3nnn(C4COC4)n3)c(Cl)c2)c2cnc3cc(Cl)nn3c21 (centres unmarked) [Example 162, 2-chloro-N-(5-chloro-6-(2-(oxetan-3-yl)-2H-tetrazol-5-yl)pyridin-3-yl)-8,8-dimethyl-7,8-dihydro-6H-cyclopenta[e]pyrazolo[1,5-a]pyrimidine-6-carboxamide]
100 to 1000 nM	CC1(C)CC(C(=O)Nc2cnc(-c3nnnn3C3COC3)c(Cl)c2)c2cnc3cc(Cl)nn3c21 (centres unmarked) [Example 163, 2-chloro-N-(5-chloro-6-(1-(oxetan-3-yl)-1H-tetrazol-5-yl)pyridin-3-yl)-8,8-dimethyl-7,8-dihydro-6H-cyclopenta[e]pyrazolo[1,5-a]pyrimidine-6-carboxamide]
100 to 1000 nM	CC1(C)CC(C(=O)Nc2cnc(C(=O)N3CC(F)(F)C3)c(C(F)(F)F)c2)c2cnc3cc(Cl)nn3c21 (centres unmarked) [Example 164, 2-chloro-N-(6-(3,3-difluoroazetidine-1-carbonyl)-5˜(trifluoromethyl)pyridin-3-yl)-8,8-dimethyl-7,8-dihydro-6H-cyclopenta[e]pyrazolo[1,5-a]pyrimidine-6-carboxamide]
≥ 1000 nM	O=C(Nc1cnc(-n2nccn2)c(Cl)c1)C1CC2(COC2)c2c1cnc1cc(Cl)nn21 (centres unmarked) [Example 165, 2-chloro-N-(5-chloro-6-(2H-1,2,3-triazol-2-yl)pyridin-3-yl)-6,7-dihydrospiro[cyclopenta[e]pyrazolo[1,5-a]pyrimidine-8,3′-oxetane]-6-carboxamide]
≥ 1000 nM	CC(C)(C)C1OC(=O)c2cc(NC(=O)C3CC4(CCC4)c4c3cnc3cc(F)nn43)cnc21 (centres unmarked) [Example 166, N-(7-(tert-butyl)-5-oxo-5,7-dihydrofuro[3,4-b]pyridin-3-yl)-2′-fluoro-6′,7′-dihydrospiro[cyclobutane-1,8′-cyclopenta[e]pyrazolo[1,5-a]pyrimidine]-6′-carboxamide]
10 to 100 nM	Cc1cc2c(F)cc3c(n2n1)C(C)(C)CC3C(=O)Nc1cnc(-n2nccn2)c(Cl)c1 (centres unmarked) [Example 171, N-(5-chloro-6-(2H-1,2,3-triazol-2-yl)pyridin-3-yl)-4-fluoro-2,8,8-trimethyl-7,8-dihydro-6H-cyclopenta[e]pyrazolo[1,5-a]pyridine-6-carboxamide]
100 to 1000 nM	CC1(C)CC(C(=O)Nc2cnc(C(=O)N3CC(F)(F)C3)c(C(F)F)c2)c2cnc3cc(Cl)nn3c21 (centres unmarked) [Example 174, 2-chloro-N-(6-(3,3-difluoroazetidine-1-carbonyl)-5-(difluoromethyl)pyridin-3-yl)-8,8-dimethyl-7,8-dihydro-6H-cyclopenta[e]pyrazolo[1,5-a]pyrimidine-6-carboxamide]
≥ 1000 nM	CC1(C)CC(C(=O)Nc2cnc(N3CCCC3=O)c(Cl)c2)c2cnc3cc(F)nn3c21 (centres unmarked) [Example 175, N-(5-chloro-6-(2-oxopyrrolidin-1-yl)pyridin-3-yl)-2-fluoro-8,8-dimethyl-7,8-dihydro-6H-cyclopenta[e]pyrazolo[1,5-a]pyrimidine-6-carboxamide]
100 to 1000 nM	CC1(C)CC(C(=O)Nc2cnc(N3CCC3=O)c(Cl)c2)c2cnc3cc(F)nn3c21 (centres unmarked) [Example 176, N-(5-chloro-6-(2-oxoazetidin-1-yl)pyridin-3-yl)-2-fluoro-8,8-dimethyl-7,8-dihydro-6H-cyclopenta[e]pyrazolo[1,5-a]pyrimidine-6-carboxamide]
100 to 1000 nM	Cc1cc(NC(=O)C2CC(C)(C)c3c2cnc2cc(F)nn32)cnc1-c1ccn(C)n1 (centres unmarked) [Example 177, 2-fluoro-8,8-dimethyl-N-(5-methyl-6-(1-methyl-1H-pyrazol-3-yl)pyridin-3-yl)-7,8-dihydro-6H-cyclopenta[e]pyrazolo[1,5-a]pyrimidine-6-carboxamide]
≥ 1000 nM	Cc1cc(NC(=O)C2CC(C)(C)c3c2cnc2cc(F)nn32)cnc1-c1cnn(C)c1 (centres unmarked) [Example 178, 2-fluoro-8,8-dimethyl-N-(5-methyl-6-(1-methyl-1H-pyrazol-4-yl)pyridin-3-yl)-7,8-dihydro-6H-cyclopenta[e]pyrazolo[1,5-a]pyrimidine-6-carboxamide]
≥ 1000 nM	Cc1cc(NC(=O)C2CC(C)(C)c3c2cnc2cc(F)nn32)cnc1N1CCC1 (centres unmarked) [Example 179, N-(6-(azetidin-1-yl)-5-methylpyridin-3-yl)-2-fluoro-8,8-dimethyl-7,8-dihydro-6H-cyclopenta[e]pyrazolo[1,5-a]pyrimidine-6-carboxamide]
